Data from patent publication US10414778B2, “Methods for treatment of resistant cancer” (New Mexico Tech University Research Park Corporation, priority 2016, dated 2019).

What was measured:
GBM 090909 cells = experiment: MTT growth inhibition, primary GBM-derived neurosphere culture GBM 090909; assay type: cell-based; conditions: Homo sapiens, Table 3, 48-96 h treatment, read-out: GI50 in vitro values, glioma GBM 090909
Description: (§1) Cell culture media were supplemented with 4 mM glutamine (Lonza code BE17-605E), 100 μg/mL gentamicin (Lonza code 17-5182), and penicillin-streptomycin (200 units/ml and 200 μg/ml) (Lonza code 17-602E). Primary GBM-derived neurosphere cultures from a patient undergoing surgical debulking were established using previously described methods. Briefly, resected tumor tissue was minced with a sterile scalpel and dissociated in 3 mL of neurobasal (NB) media containing 100 U/mL of collagenase (Life Technologies™) for 30 minutes at 37° C. Dissociated tissue was then vortexed and filtered using a sterile 70 um nylon Falcon™ cell strainer (Corning™). […]
(§2) Compound 4l was evaluated for in vitro growth inhibition against a panel of cancer cell lines, including U373, U251, U87, T98G, human GBM, and A549 NSCLC. […] Compound 4l was also evaluated for in vitro growth inhibition against the apoptosis-sensitive tumor model Hs683 anaplastic oligodendroglioma as a reference.

GBM 031810 cells = experiment: MTT growth inhibition, primary GBM-derived neurosphere culture GBM 031810; assay type: cell-based; conditions: Homo sapiens, Table 3, 48-96 h treatment, read-out: GI50 in vitro values, glioma GBM 031810
Description: as §1, §2

O=C1C=CC2(C=C1)CCN(C(=O)C(F)(F)F)Cc1c2sc2ccccc12 [Compound 4l]
GI50 (GBM 090909 cells): 7 µM
GI50 (GBM 031810 cells): 8 µM
